Where “and” joins values, the source holds several entries; their conditions need not be identical. Equal values may be shown once.
Columns and labels:
tScCBS [1] = target: T1, tScCBS (Saccharomyces cerevisiae, UniProt P32582); test: CBL-LDH coupled-coupled CBS assay, tScCBS; assay type: biochemical; conditions: tScCBS; CBL-LDH coupled-coupled assay
T1 construct: 6xHis (C); made in house
T1 sequence (P32582 1-345): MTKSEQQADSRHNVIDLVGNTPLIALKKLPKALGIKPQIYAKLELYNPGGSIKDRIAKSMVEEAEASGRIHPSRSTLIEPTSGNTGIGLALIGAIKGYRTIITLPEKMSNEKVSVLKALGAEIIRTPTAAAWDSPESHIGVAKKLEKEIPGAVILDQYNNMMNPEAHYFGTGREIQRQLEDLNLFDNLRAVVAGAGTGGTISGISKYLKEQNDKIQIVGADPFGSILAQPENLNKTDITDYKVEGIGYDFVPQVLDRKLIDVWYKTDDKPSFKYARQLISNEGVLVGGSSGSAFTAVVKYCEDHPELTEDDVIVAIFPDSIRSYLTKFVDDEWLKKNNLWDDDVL
Experimental: (§1) CBS coupled-coupled assay. CBS canonical activity utilizing Ser and Hcy was determined using cystathionine beta-lyase (CBL) and lactate-dehydrogenase (LDH) coupled-coupled assay as described previously with a few modifications. Native L-LDH from rabbit muscle was purchased from Sigma (catalog no. L2500) and recombinant CBL was purchased from Creative Enzymes (catalog no. NATE-1146). In a final volume of 150 µL, the reaction mixture contained 50 mM Tris–HCl pH 8.9, 20 µM PLP, 500 µM NADH, 1.3 µM LDH, 0.1 µM CBL, 0–20 mM Ser (or 0–50 mM Cys) and 500 ng of tScCBS or HsCBS. Assays with HsCBS were carried out in the absence or presence of 500 µM CBS allosteric activator S-adenosylmethionine (SAM). The reaction was triggered by the addition of 2 mM Hcy and the oxidation of NADH to NAD^+ was followed by monitoring the decrease in absorbance at 340 nm over time (ε340 = 6220 M^−1.cm^−1). […] All measurements were performed in triplicates using Tecan Infinite 200 PRO microplate reader. Kinetic data were analyzed using GraphPad Prism software.

tScCBS [2] = target: T1, tScCBS; test: Kinetics of AOAA binding to tScCBS and displacement by substrate, followed by absorption spectra; conditions: in the presence of Cys, data not shown
Experimental: (§2) UV − Vis and fluorescence spectroscopy. Absorption spectra were collected on a Tecan Infinite M200 Pro spectrophotometer in a buffer containing 50 mM Tris–HCl pH 8.5, 20 mM NaCl and 0.5 mM tris(2-carboxyethyl)phosphine (TCEP). All the spectra were carried out with a protein concentration of 1 mg/mL with a 1 cm path-length quartz cuvette in a total volume of 150 µL. tScCBS was titrated directly in a cuvette by successive additions of different concentrations of AOAA, Ser and Cys, respectively, and spectra were recorded between 240 and 600 nm after an incubation time of 3 min at RT. Fluorescence emission spectra were collected under the same conditions upon PLP excitation at 410 nm. Blank spectra were subtracted from sample spectra.
Fig. 2 Spectroscopic rescue of AOAA-inhibited tScCBS by Ser. A Changes in the absorption spectra of tScCBS upon addition of 20 µM AOAA (cyan lines) followed for 1 h. Subsequently, 1 mM Ser (gray lines) was added and spectral changes were followed for additional 1 h. B Representative kinetic fitting of AOAA binding to tScCBS followed at 412 nm. C Representative kinetic fitting of AOAA displacement from tScCBS by Ser by following changes at 370 nm and 460 nm. The kinetic parameters of the observed processes are shown as insets in panels B and C. Far-UV (D) and near-UV (E) CD spectra of tScCBS (black), tScCBS complexed with 20 µM AOAA (cyan) or 1 mM Ser (magenta) and tScCBS complexed with 20 µM AOAA followed by 1 h incubation with 1 mM Ser (green).

tScCBS [3] = target: T1, tScCBS; test: CBS H2S production assay (AzMC fluorometric), tScCBS; assay type: biochemical; conditions: tScCBS; AzMC assay
Experimental: (§3) CBS H2S production assay. H2S-producing activity of CBS, utilizing Cys and Hcy, was determined using a fluorometric assay employing the H2S-selective fluorescent probe 7-azido-4-methylcoumarin (AzMC) as described previously. The reaction mixture in a total volume of 200 µL contained 50 mM Tris–HCl pH 8.6, 5 μM PLP, 2 mM Hcy, 10 μM AzMC and 500 ng tScCBS or HsCBS. The plate was incubated for 10 min at 37°C and the enzymatic activity was triggered by adding 0–50 mM Cys. The fluorescence of the mixtures at 450 nm (excited at 365 nm) was followed for 2 h at 37°C. All measurements were performed in triplicates using Tecan Infinite 200 PRO microplate reader. Kinetic data were analyzed using GraphPad Prism software.

tScCBS [4] = target: T1, tScCBS; test: UV-Vis absorption titration of tScCBS (dissociation constants); assay type: binding; conditions: tScCBS 1 mg/mL, pH 8.5; decrease in absorbance at 412 nm (AOAA), increase at 460 nm (Ser) or 440 nm (Cys); 3 min incubation; read-out: Dissociation constant Kd (UV-Vis absorption)
Experimental: (§4) CBS enzymes. Recombinant truncated Saccharomyces cerevisiae CBS lacking the C-terminal regulatory domain (residues 346–507) and carrying the C-terminal 6xHis tag (tScCBS) was prepared as described previously. Engineered recombinant Homo sapiens CBS lacking a loop protruding from the central β-strand of the CBS2 domain corresponding to the residues 516–525 (HsCBS; described in detail in [21]) was purchased from GenScript.
as §2

tScCBS [5] = target: T1, tScCBS; test: Fluorescence emission titration of tScCBS (PLP excitation at 410 nm); assay type: binding; conditions: tScCBS 1 mg/mL, pH 8.5; decrease in emission at 520 nm, excitation 410 nm; read-out: Dissociation constant Kd (fluorescence)
Experimental: as §4, §2

HsCBS [6] = target: T2, HsCBS (Homo sapiens, UniProt P35520, DEL516-525); test: CBS H2S production assay (AzMC fluorometric), HsCBS; assay type: biochemical; conditions: AzMC assay
T2 construct: purchased GenScript
T2 sequence (P35520 with tags, fused parts or gaps DEL516-525): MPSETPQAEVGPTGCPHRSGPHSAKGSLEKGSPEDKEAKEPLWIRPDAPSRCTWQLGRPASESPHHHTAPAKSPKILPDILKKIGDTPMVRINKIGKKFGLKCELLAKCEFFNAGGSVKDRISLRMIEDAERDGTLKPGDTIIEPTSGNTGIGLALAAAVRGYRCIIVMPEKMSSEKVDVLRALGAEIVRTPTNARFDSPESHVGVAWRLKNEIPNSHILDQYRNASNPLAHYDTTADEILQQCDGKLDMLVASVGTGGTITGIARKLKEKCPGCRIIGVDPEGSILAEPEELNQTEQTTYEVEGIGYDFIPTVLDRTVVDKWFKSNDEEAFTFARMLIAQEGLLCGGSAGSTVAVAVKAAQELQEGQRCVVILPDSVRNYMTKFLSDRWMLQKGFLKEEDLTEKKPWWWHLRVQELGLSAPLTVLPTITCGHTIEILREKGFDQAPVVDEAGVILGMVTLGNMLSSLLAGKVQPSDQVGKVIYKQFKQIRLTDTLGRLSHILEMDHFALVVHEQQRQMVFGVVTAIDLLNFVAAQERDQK
Experimental: as §3

HsCBS [7] = target: T2, HsCBS; test: CBL-LDH coupled-coupled CBS assay, HsCBS; assay type: biochemical; conditions: CBL-LDH coupled-coupled assay
Experimental: as §1

- Vmax (tScCBS [1]): 161.5 ± 4.5 µmol/h/mg
- kcat (tScCBS [1]): 1.7 ± 0.1 s⁻¹
- Displacement of AOAA from the tScCBS active site (tScCBS [2]): did not occur
- Vmax (tScCBS [3]): 317.0 ± 24.1 µmol/h/mg
- kcat (tScCBS [3]): 3.4 ± 0.3 s⁻¹
- Kd (tScCBS [4]): ~58 µM and 57.3 µM
- Kd (tScCBS [5]): 48.9 ± 14.6 µM
- Vmax (HsCBS [6]; HsCBS + SAM): 113.3 ± 4.0 µmol/h/mg
- kcat (HsCBS [6]; HsCBS + SAM): 1.93 ± 0.06 s⁻¹
- Vmax (HsCBS [6]; HsCBS – SAM): 30.8 ± 1.9 µmol/h/mg
- kcat (HsCBS [6]; HsCBS – SAM): 0.52 ± 0.04 s⁻¹
- Vmax (HsCBS [7]; HsCBS + SAM): 97.2 ± 7.1 µmol/h/mg
- kcat (HsCBS [7]; HsCBS + SAM): 1.66 ± 0.03 s⁻¹
- Vmax (HsCBS [7]; HsCBS – SAM): 20.1 ± 1.7 µmol/h/mg
- kcat (HsCBS [7]; HsCBS – SAM): 0.34 ± 0.02 s⁻¹
Compound: N[C@@H](CS)C(=O)O [Cys, cysteine]
